Test results taken from patent US12447167B2, “GM-CSF-producing t-cell control agent and Th1/Th2 immune balance regulator” (National Center of Neurology and Psychiatry, priority 2014, dated 2025).

Legend:
[1] = Disposition after single oral dose, humans (normal subjects); format: in vivo, human; set-up: concentration in blood: unit not given here; conditions: for AUC(0-inf) / AUC(0-t) / half-life / Cmax / Tmax: human; for AUC(0-inf) / AUC(0-t) / half-life: blood; for AUC(0-inf) / AUC(0-t) / half-life / Cmax / Tmax / concentration in blood: normal subjects; for Cmax / Tmax: plasma
Procedure: (§1) After a single dose of compound 31 labeled with ^14C was orally administered at a predetermined dose to each of a male mouse, a male rat, and a male cynomolgus monkey under fasting conditions, the concentration in blood was measured after a lapse of a given time, and parameters such as maximum plasma concentration Cmax, time Tmax to reach the maximum plasma concentration, half-life t1/2, area under curve AUC0-∞, mean retention time MRT0-∞, and bioavailability BA were calculated. The concentration in blood in humans (normal subjects) was measured and each of the parameters was calculated, in the similar manner as above except that ^14C-unlabeled compound 31 was used.
(§2) In the tables, “N.D.” means not detected.
In this context, assuming the body weights of the humans were 60 kg, the doses were corrected to be the same, and the value of AUC0-∞ was compared between the mouse, the rat, and the cynomolgus monkey, and the humans. […] Specifically, AUC0-∞ for the humans was 2.72 to 8.94 times AUC0-∞ for the mouse, 4.77 to 15.7 times AUC0-∞ for the rat, and 6.69 to 22.0 times AUC0-∞ for the cynomolgus monkey.

[2] = Disposition after single oral dose, cynomolgus monkey; format: in vivo; conditions: male cynomolgus monkey, 10 mg/kg single oral, 14C-labeled, fasting
Procedure: as §1, §2

[3] = Disposition after single oral dose, MS patients; format: in vivo, human; conditions: 0.3 mg/body single oral
Procedure: In the similar manner as in Example 5, a single dose of compound 31 labeled with ^14C was orally administered to each of 2 MS patients (subjects) after obtainment of informed consent, and the concentration of the compound in blood was measured and each parameter was calculated by collecting blood after a lapse of a given time.

## CCCCCCCCCCCCCCCCCCCCCCCC(=O)NC(COC1OC(CO)C(O)C(O)C1O)[C@H](O)C(O)CCCCC (stereo in doubt) [compound 31, (2S,3S,4R)-1-O-(α-D-galactosyl)-2-(N-tetracosanoylamino)-1,3,4-nonanetriol]
[1]; human 0.3 mg/body (60 kg assumed) vs cynomolgus monkey 10 mg/kg
  species difference (fold) of dose-corrected AUC0-∞, human vs cynomolgus monkey: 19.70 fold
[1]; human 0.3 mg/body (60 kg assumed) vs mouse 5 mg/kg
  species difference (fold) of dose-corrected AUC0-∞, human vs mouse: 8.01 fold
[1]; human 0.3 mg/body (60 kg assumed) vs rat 10 mg/kg
  species difference (fold) of dose-corrected AUC0-∞, human vs rat: 14.05 fold
[1]; human 1 mg/body (60 kg assumed) vs cynomolgus monkey 10 mg/kg
  species difference (fold) of dose-corrected AUC0-∞, human vs cynomolgus monkey: 21.99 fold
[1]; human 1 mg/body (60 kg assumed) vs mouse 5 mg/kg
  species difference (fold) of dose-corrected AUC0-∞, human vs mouse: 8.94 fold
[1]; human 1 mg/body (60 kg assumed) vs rat 10 mg/kg
  species difference (fold) of dose-corrected AUC0-∞, human vs rat: 15.69 fold
[1]; human 3 mg/body (60 kg assumed) vs cynomolgus monkey 10 mg/kg
  species difference (fold) of dose-corrected AUC0-∞, human vs cynomolgus monkey: 12.29 fold
[1]; human 3 mg/body (60 kg assumed) vs mouse 5 mg/kg
  species difference (fold) of dose-corrected AUC0-∞, human vs mouse: 5.00 fold
[1]; human 3 mg/body (60 kg assumed) vs rat 10 mg/kg
  species difference (fold) of dose-corrected AUC0-∞, human vs rat: 8.77 fold
[1]; human 10 mg/body (60 kg assumed) vs cynomolgus monkey 10 mg/kg
  species difference (fold) of dose-corrected AUC0-∞, human vs cynomolgus monkey: 9.62 fold
[1]; human 10 mg/body (60 kg assumed) vs mouse 5 mg/kg
  species difference (fold) of dose-corrected AUC0-∞, human vs mouse: 3.91 fold
[1]; human 10 mg/body (60 kg assumed) vs rat 10 mg/kg
  species difference (fold) of dose-corrected AUC0-∞, human vs rat: 6.86 fold
[1]; human 30 mg/body (60 kg assumed) vs cynomolgus monkey 10 mg/kg
  species difference (fold) of dose-corrected AUC0-∞, human vs cynomolgus monkey: 6.69 fold
[1]; human 30 mg/body (60 kg assumed) vs mouse 5 mg/kg
  species difference (fold) of dose-corrected AUC0-∞, human vs mouse: 2.72 fold
[1]; human 30 mg/body (60 kg assumed) vs rat 10 mg/kg
  species difference (fold) of dose-corrected AUC0-∞, human vs rat: 4.77 fold
[1]; 0.3 mg/body oral
  AUC(0-inf): 23.4 ng·h/mL
  AUC(0-t): 11.7 ng·h/mL
  half-life: 1280 min
  Cmax: 0.629 ng/mL
  Tmax: 13 h
[1]; 1 mg/body oral
  AUC(0-inf): 87.1 ng·h/mL
  AUC(0-t): 63.4 ng·h/mL
  half-life: 2660 min
  Cmax: 1.49 ng/mL
  Tmax: 20.7 h
[1]; 3 mg/body oral
  AUC(0-inf): 146 ng·h/mL
  AUC(0-t): 121 ng·h/mL
  half-life: 2870 min
  Cmax: 2.11 ng/mL
  Tmax: 28.3 h
[1]; 10 mg/body oral
  AUC(0-inf): 381 ng·h/mL
  AUC(0-t): 324 ng·h/mL
  half-life: 2720 min
  Cmax: 6.01 ng/mL
  Tmax: 26.3 h
[1]; 30 mg/body oral
  AUC(0-inf): 795 ng·h/mL
  AUC(0-t): 657 ng·h/mL
  half-life: 3220 min
  Cmax: 9.81 ng/mL
  Tmax: 28.3 h
[1]; 0.3 mg/body oral, 6 h
  concentration in blood: 0.368
[1]; 0.3 mg/body oral, 13 h
  concentration in blood: 0.629
[1]; 0.3 mg/body oral, 21 h
  concentration in blood: 0.365
[1]; 0.3 mg/body oral, 24 h
  concentration in blood: 0.31
[1]; 0.3 mg/body oral, 30 h
  concentration in blood: 0.382
[1]; 1 mg/body oral, 6 h
  concentration in blood: 0.368
[1]; 1 mg/body oral, 13 h
  concentration in blood: 1.39
[1]; 1 mg/body oral, 21 h
  concentration in blood: 1.04
[1]; 1 mg/body oral, 24 h
  concentration in blood: 0.98
[1]; 1 mg/body oral, 30 h
  concentration in blood: 0.961
[1]; 1 mg/body oral, 36 h
  concentration in blood: 1.01
[1]; 1 mg/body oral, 48 h
  concentration in blood: 0.719
[1]; 1 mg/body oral, 72 h
  concentration in blood: 0.484
[1]; 1 mg/body oral, 96 h
  concentration in blood: 0.224
[1]; 3 mg/body oral, 6 h
  concentration in blood: 0.337
[1]; 3 mg/body oral, 13 h
  concentration in blood: 1.13
[1]; 3 mg/body oral, 21 h
  concentration in blood: 1.33
[1]; 3 mg/body oral, 24 h
  concentration in blood: 1.33
[1]; 3 mg/body oral, 30 h
  concentration in blood: 1.7
[1]; 3 mg/body oral, 36 h
  concentration in blood: 1.99
[1]; 3 mg/body oral, 48 h
  concentration in blood: 1.37
[1]; 3 mg/body oral, 72 h
  concentration in blood: 0.838
[1]; 3 mg/body oral, 96 h
  concentration in blood: 0.549
[1]; 3 mg/body oral, 144 h
  concentration in blood: 0.266
[1]; 10 mg/body oral, 6 h
  concentration in blood: 2.01
[1]; 10 mg/body oral, 13 h
  concentration in blood: 3.32
[1]; 10 mg/body oral, 21 h
  concentration in blood: 3.15
[1]; 10 mg/body oral, 24 h
  concentration in blood: 3.33
[1]; 10 mg/body oral, 30 h
  concentration in blood: 3.76
[1]; 10 mg/body oral, 36 h
  concentration in blood: 5.37
[1]; 10 mg/body oral, 48 h
  concentration in blood: 3.66
[1]; 10 mg/body oral, 72 h
  concentration in blood: 2.23
[1]; 10 mg/body oral, 96 h
  concentration in blood: 1.42
[1]; 10 mg/body oral, 144 h
  concentration in blood: 0.689
[1]; 30 mg/body oral, 6 h
  concentration in blood: 2.82
[1]; 30 mg/body oral, 13 h
  concentration in blood: 6.65
[1]; 30 mg/body oral, 21 h
  concentration in blood: 6.98
[1]; 30 mg/body oral, 24 h
  concentration in blood: 7.47
[1]; 30 mg/body oral, 30 h
  concentration in blood: 8.08
[1]; 30 mg/body oral, 36 h
  concentration in blood: 9.46
[1]; 30 mg/body oral, 48 h
  concentration in blood: 6.58
[1]; 30 mg/body oral, 72 h
  concentration in blood: 4.65
[1]; 30 mg/body oral, 96 h
  concentration in blood: 3.05
[1]; 30 mg/body oral, 144 h
  concentration in blood: 1.82
[2]; blood
  AUC(0-inf): 2380 ng·h/mL
  AUC(0-t): 2260 ng·h/mL
  half-life: 2350 min
[2]; blood, read-out: MRT0-∞
  MRT inf: 60.9 h
[2]
  BA: 0.11%
  Rate of absorption: 0.41%
[2]; 4 h
  concentration in blood: 1.92
[2]; 8 h
  concentration in blood: 9.59
[2]; 12 h
  concentration in blood: 33.4
[2]; 24 h
  concentration in blood: 35.2
[2]; 48 h
  concentration in blood: 26.5
[2]; 72 h
  concentration in blood: 13
[2]; 96 h
  concentration in blood: 7.1
[2]; 120 h
  concentration in blood: 4.21
[2]; 144 h
  concentration in blood: 2.83
[2]; 168 h
  concentration in blood: 2.05
[2]; plasma
  Cmax: 39.4 ng/mL
  Tmax: 28 h
[3]
  concentration in blood in MS patients as compared with normal persons: low concentration in blood
[3]; human, blood
  AUC(0-t): 1.41 ng·h/mL
  Cmax: 0.122 ng/mL
  Tmax: 18 h
